Laboratory results reported in US12503455B2, “Nucleic acid-binding photoprobes and uses thereof” (Arrakis Therapeutics, Inc., priority 2017, dated 2025).

Legend:
[1] = tested on: Aptamer 21-E; assay: SEC/LCMS binding to Aptamer 21-E
Description: (§1) The RNA concentration was 1 μM and the ligand concentration ranged from 0.1 to 10 μM in an appropriate buffer (TRIS-HCl 20 mM pH 8.0, MgCl2 3 mM, KCl 100 mM).
(§2) The RNA/ligand mixtures were incubated at room temperature for 20 minutes in a 96-well plate format, then this plate was loaded into an autosampler linked to the chromatography system fitted with a reusable SEC column for rapid separation of target/ligand complexes from unbound components. RNA/ligand complexes in SEC eluent were monitored by UV detection, and an automated valving system directed the RNA peak to a reverse phase chromatography column for dissociation, desalting, and elution of any ligands into an ESI-MS system for identification.
(§3) All liquid chromatographic components were HP1200 modules. The mass spectrometer was the Waters LCT premier instrument operated in positive electrospray (ES+) TOF-MS mode. The mass range acquired was 80-1000 m/z in 0.25 s. The SEC column was 50×4.6 mm polyhydroxyethyl column. The SEC mobile phase was 50 mM phosphate buffer with 200 mM NaCl, pH=7.0. The LC column was a 2.1×50 mm C18 Phenomenex column. The gradient LC mobile phase A was 0.1% formic acid in water and B was acetonitrile/water with 0.1% formic acid. The run time was 7.9 min.
The start of saturation was between 1 and 3 μM.

[2] = tested on: Aptamer 21 RNA; assay: Online SEC-LCMS binding to Aptamer 21 RNA; conditions: for % of binding: RNA 1 uM
Description: Online SEC-LCMS has been used to study the binding to Aptamer 21 RNA against I-1 (ARK-139).
as §1, §2, §3
Binding of I-1 to Aptamer 21 was measured. SEC/LCMS conditions for this experiment were: [I-1]=5 uM, [RNA]=1 uM, Buffer=Tris-HCl 20 mM, KCl 100 mM, 3 mM MgCl2.

- binding to Aptamer 21-E by SEC/LCMS [1]: does not bind
- % of binding ([2]; ARK-000139 conc 0.1 μM): 72.5%
- % of binding ([2]; ARK-000139 conc 0.5 μM): 36.5%
- % of binding ([2]; ARK-000139 conc 1 μM): 33.6%
- % of binding ([2]; ARK-000139 conc 3 μM): 22.4%
- % of binding ([2]; ARK-000139 conc 10 μM): 8.9%
- binding to Aptamer 21 by SEC-MS ([2]; data not shown): confirmed
Structure (SMILES): COC(=O)C1=C(COCc2cn(CCOCCOCCO)nn2)NC(c2ccncc2)=NC1c1ccc(F)cc1Cl (racemic) [I-1]
